The record followed here is patent US5449814A, “Lignan analogues, methods of preparation thereof and anti-hyperlipemic agents” (Shionogi & Co., Ltd., priority 1991, dated 1995).

Where two headings read alike, the source gives them in different places.

For orientation: IC50 means the concentration needed to halve the response being measured.

One assay deals with LDL. Kind of assay: Inhibitory effect on oxidative modification of LDL (copper-induced, TBA reactive substances). The note with it: rabbit LDL 0.2 mg protein/ml, 0.5 μM Cu^2+, 37° C., 24 hours; read-out: Inhibition of LDL oxidation IC50. It is filed as biochemical, New Zealand albino rabbits. Here is the method:
Inhibitory effect on oxidative modification of LDL
According to the method by Kita et al. (Proc. Natl. Acad. Sci., U.S.A, Vol. 84, 5928 (1987)), the experiment was proceeded as follows.
LDL was isolated from the blood of New Zealand albino rabbits fed with a diet containing 0.5% cholesterol for 3 weeks, and dissolved in phosphate-buffered physiological saline (final LDL concentration: 0.2 mg protein/ml). To this solution, each test compound in ethanol was added and then copper sulfate (final Cu^2+ concentration: 0.5 μM) was added thereto. The mixture was incubated at 37° C. for 24 hours.
After incubation, the content of lipid peroxides in each solution was determined as thiobarbituric acid reactive substances (TBA reactive substances). Concentration for 50% inhibition (IC50) was obtained from a linear regression curve of concentration of a compound versus % inhibition of oxidative modification of LDL. To quantify TBA reactive substances, proteins were removed from the solution after incubation, and the supernatant was examined for the content of TBA reactive substances by TBA method.

The test system of the next assay is cholesterol in serum. Kind of assay: Hypocholesterolemic effect in cholesterol-fed mice. Format: in vivo, Male ICR mice. The note with it: Mus musculus, po, 168 h, diet 1% cholesterol and 0.5% sodium cholate with 0.12% test compound, 7 days. Here is the method: Hypocholesterolemic effect
Male ICR mice weighing 30 to 40 g were allowed to access to a diet containing 1% cholesterol and 0.5% sodium cholate supplemented with 0.12% of a test compound (no test compound in control group) ad libitum for 7 days. Then, the blood was taken and total cholesterol in serum was determined by the method of Allain (Clin. Chem., Vol. 20, 470 (1974)).
Total amount of VLDL cholesterol and LDL cholesterol was obtained by subtracting HLD cholesterol from total cholesterol. HLD cholesterol was quantified by the method of Ash and Hentschel et al. (Clin. Chem., Vol. 24, 2180 (1978)).
Hypocholesterolemic effect of a test compound was evaluated based on % reduction in cholesterol calculated using the equation shown below.

The mark [1] stands for this setting: serum, read-out: Total Chol. reduction (%).
The mark [2] stands for this setting: total minus HDL cholesterol, read-out: (VLDL + LDL) Chol. reduction (%).

On to `CCC(=O)c1c(C(=O)OC)c(-c2ccc(OC)c(OC)c2)c2c(OC)c(OC)c(OC)c(OC)c2c1O` [Example 73, 1-(3,4-dimethoxyphenyl)-3-(1-oxopropyl)-4-hydroxy-2-methoxycarbonyl-5,6,7,8-tetramethoxynaphthalene], for which, in the assay with LDL, the IC50 was 2920 nM. Besides, the inhibition in vivo at 0.12 % in diet stood at 13% with cholesterol in serum (setting [1]) and 60% in the assay on cholesterol in serum (setting [2]).

On to `CCC(=O)c1c(C(=O)OC)c(-c2ccc(OC)c(OC)c2)c2c(OC)c(OC)c(OC)c(COC)c2c1O` [Example 74, 1-(3,4-dimethoxyphenyl)-3-(1-oxopropyl)-4-hydroxy-2-methoxycarbonyl-5-methoxymethyl-6,7,8-trimethoxynaphthalene], for which the IC50 with LDL was 6560 nM. Further, the inhibition in vivo at 0.12 % in diet with cholesterol in serum (setting [1]) is 6%; in the assay with cholesterol in serum (setting [2]) it was 41%.

On to `COC(=O)c1c(C(=O)C(C)C)c(O)c2c(C)c(OC)c(OC)c(OC)c2c1-c1ccc(OC)c(OC)c1` [Example 76, 1-(3,4-dimethoxyphenyl)-3-(2-methyl-1-oxo-propyl)-4-hydroxy-2-methoxycarbonyl-5-methyl-6,7,8-trimethoxynaphthalene], for which, in the assay with LDL, the IC50 worked out at 540 nM. For the same compound, the inhibition in vivo at 0.12 % in diet came to 15% in the assay on cholesterol in serum (setting [1]) and 43% in the assay on cholesterol in serum (setting [2]).

`COC(=O)c1c(C(=O)C(C)C)c(O)c2c(OC)c(OC)c(OC)c(OC)c2c1-c1ccc(OC)c(OC)c1` [Example 77, 1-(3,4-dimethoxyphenyl)-3-(2-methyl-1-oxopropyl)-4-hydroxy-2-methoxycarbonyl-5,6,7,8-tetramethoxynaphthalene]: the 50% inhibitory concentration (IC50) in the assay with LDL was determined as 2550 nM. Moreover, the results for the inhibition in vivo at 0.12 % in diet in the assay on cholesterol in serum (setting [1]) and with cholesterol in serum (setting [2]) were 18% and 53%, respectively.

On to `COC(=O)c1c(C(=O)c2ccccc2)c(O)c2c(C)c(OC)c(OC)c(OC)c2c1-c1ccc(OC)c(OC)c1` [Example 78, 3-benzoyl-1-(3,4-dimethoxyphenyl)-4-hydroxy-2-methoxycarbonyl-5-methyl-6,7,8-trimethoxynaphthalene], for which the IC50 in the assay with LDL was 620 nM. In addition, the values for the inhibition in vivo at 0.12 % in diet in the assay with cholesterol in serum (setting [1]) and in the assay on cholesterol in serum (setting [2]) were 14% and 42%, respectively.
